Results from ChEMBL document CHEMBL5512682, “Discovery of BMS-986308: A Renal Outer Medullary Potassium Channel Inhibitor for the Treatment of Heart Failure” (J Med Chem, 2024).
Values after ≈ are worked out from the molar mass of the structure shown.

Assays:
[1] = Metabolic stability in human liver microsomes assessed as parent compound remaining at 10 uM measured after 10 mins in presence of NADPH and GSH by UPLC-MS/MS analysis; assay type: ADME, Microsome; conditions: read-out: Stability
[2] = Metabolic stability in rat liver microsomes assessed as parent compound remaining at 10 uM measured after 10 mins in presence of NADPH and GSH by UPLC-MS/MS analysis; assay type: ADME, Microsome; conditions: read-out: Stability
[3] = Glutathione reactivity in human liver microsomes assessed as GSH-adduct formation at 10 uM incubated for 60 mins in presence of NADPH and GSH by HPLC-MS analysis; assay type: ADME, Microsome; conditions: 1 h
[4] = target: Inward rectifier potassium channel 2 (Homo sapiens, UniProt P63252); test: Inhibition of Kir 2.1 (unknown origin)
Sequence of Inward rectifier potassium channel 2 (P63252 whole entry): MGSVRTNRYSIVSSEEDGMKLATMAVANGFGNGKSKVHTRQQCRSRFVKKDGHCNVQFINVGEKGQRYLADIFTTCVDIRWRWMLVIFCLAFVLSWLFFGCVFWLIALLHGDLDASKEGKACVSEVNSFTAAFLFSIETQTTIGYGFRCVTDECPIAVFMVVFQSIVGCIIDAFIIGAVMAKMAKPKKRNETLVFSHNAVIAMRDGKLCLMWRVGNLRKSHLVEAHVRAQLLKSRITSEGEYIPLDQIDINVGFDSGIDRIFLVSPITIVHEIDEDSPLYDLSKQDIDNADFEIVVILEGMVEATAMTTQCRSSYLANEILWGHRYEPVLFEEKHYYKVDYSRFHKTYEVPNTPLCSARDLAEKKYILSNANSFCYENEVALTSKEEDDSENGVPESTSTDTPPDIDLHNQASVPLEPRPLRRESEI

[5] = target: Inward rectifier potassium channel 4 (Homo sapiens, UniProt P48050); test: Inhibition of Kir 2.3 (unknown origin)
Sequence of Inward rectifier potassium channel 4 (P48050 whole entry): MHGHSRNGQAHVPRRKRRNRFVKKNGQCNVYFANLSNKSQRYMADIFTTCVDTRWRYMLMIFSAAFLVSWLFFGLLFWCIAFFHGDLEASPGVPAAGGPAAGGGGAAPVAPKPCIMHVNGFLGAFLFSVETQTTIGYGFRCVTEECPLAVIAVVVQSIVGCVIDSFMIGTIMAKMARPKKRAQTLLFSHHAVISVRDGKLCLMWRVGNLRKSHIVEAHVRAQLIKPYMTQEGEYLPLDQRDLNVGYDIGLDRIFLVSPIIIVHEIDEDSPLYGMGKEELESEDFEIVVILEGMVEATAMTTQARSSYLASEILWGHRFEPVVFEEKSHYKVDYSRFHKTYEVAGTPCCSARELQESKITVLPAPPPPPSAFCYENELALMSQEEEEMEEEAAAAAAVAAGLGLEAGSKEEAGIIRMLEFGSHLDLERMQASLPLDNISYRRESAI

[6] = target: ATP-sensitive inward rectifier potassium channel 10 (Homo sapiens, UniProt P78508); test: Inhibition of Kir 4.1 (unknown origin)
Sequence of ATP-sensitive inward rectifier potassium channel 10 (P78508 whole entry): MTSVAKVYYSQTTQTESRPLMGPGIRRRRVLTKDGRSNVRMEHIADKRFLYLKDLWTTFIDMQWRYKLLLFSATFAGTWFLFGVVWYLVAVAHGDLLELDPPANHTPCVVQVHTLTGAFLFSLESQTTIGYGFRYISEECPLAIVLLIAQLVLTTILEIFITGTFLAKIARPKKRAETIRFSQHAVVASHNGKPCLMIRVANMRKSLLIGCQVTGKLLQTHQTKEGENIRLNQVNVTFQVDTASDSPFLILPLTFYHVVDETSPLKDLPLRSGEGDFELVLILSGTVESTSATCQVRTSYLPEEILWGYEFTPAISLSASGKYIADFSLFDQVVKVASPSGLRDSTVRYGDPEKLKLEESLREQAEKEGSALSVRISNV

[7] = target: Inward rectifier potassium channel 13 (Homo sapiens, UniProt O60928); test: Inhibition of Kir 7.1 (unknown origin)
[8] = Permeability of compound from apical to basolateral side in human Caco-2 cells; assay type: ADME, cell-based; conditions: read-out: permeability
[9] = Permeability of compound from basolateral to apical side in human Caco-2 cells; assay type: ADME, cell-based
Cytochrome P450 1A2 = Cytochrome P450 1A2 (Homo sapiens, UniProt P05177); test: Inhibition of CYP1A2 in human liver microsomes; assay type: ADME, Microsome
Cytochrome P450 2B6 = Cytochrome P450 2B6 (Homo sapiens, UniProt P20813); test: Inhibition of CYP2B6 in human liver microsomes; assay type: ADME, Microsome
Cytochrome P450 2C8 = Cytochrome P450 2C8 (Homo sapiens, UniProt P10632); test: Inhibition of CYP2C8 in human liver microsomes; assay type: ADME, Microsome
Sequence of Cytochrome P450 2C8 (P10632 whole entry): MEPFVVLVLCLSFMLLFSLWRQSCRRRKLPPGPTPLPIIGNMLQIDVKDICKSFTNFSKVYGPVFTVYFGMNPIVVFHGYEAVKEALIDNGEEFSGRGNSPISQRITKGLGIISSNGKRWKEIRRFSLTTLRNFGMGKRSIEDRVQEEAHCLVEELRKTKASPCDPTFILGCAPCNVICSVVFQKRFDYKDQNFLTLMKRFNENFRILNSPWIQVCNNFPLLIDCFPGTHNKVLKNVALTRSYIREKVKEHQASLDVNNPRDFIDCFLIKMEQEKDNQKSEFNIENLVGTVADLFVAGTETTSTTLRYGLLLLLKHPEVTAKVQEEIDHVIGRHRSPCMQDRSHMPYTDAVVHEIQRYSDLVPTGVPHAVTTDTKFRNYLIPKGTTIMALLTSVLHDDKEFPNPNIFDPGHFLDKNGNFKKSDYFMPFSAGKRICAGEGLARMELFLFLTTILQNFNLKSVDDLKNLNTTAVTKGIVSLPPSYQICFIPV

Cytochrome P450 2C9 = Cytochrome P450 2C9 (Homo sapiens, UniProt P11712); test: Inhibition of CYP2C9 in human liver microsomes; assay type: ADME, Microsome
Cytochrome P450 2C19 = Cytochrome P450 2C19 (Homo sapiens, UniProt P33261); test: Inhibition of CYP2C19 in human liver microsomes; assay type: ADME, Microsome
Cytochrome P450 2D6 = Cytochrome P450 2D6 (Homo sapiens, UniProt P10635); test: Inhibition of CYP2D6 in human liver microsomes; assay type: ADME, Microsome
Cytochrome P450 3A4 [10] = target: T1, Cytochrome P450 3A4 (Homo sapiens, UniProt P08684); test: Inhibition of CYP3A4 in human liver microsomes using midazolam as substrate; assay type: ADME, Microsome
T1 sequence (P08684 whole entry): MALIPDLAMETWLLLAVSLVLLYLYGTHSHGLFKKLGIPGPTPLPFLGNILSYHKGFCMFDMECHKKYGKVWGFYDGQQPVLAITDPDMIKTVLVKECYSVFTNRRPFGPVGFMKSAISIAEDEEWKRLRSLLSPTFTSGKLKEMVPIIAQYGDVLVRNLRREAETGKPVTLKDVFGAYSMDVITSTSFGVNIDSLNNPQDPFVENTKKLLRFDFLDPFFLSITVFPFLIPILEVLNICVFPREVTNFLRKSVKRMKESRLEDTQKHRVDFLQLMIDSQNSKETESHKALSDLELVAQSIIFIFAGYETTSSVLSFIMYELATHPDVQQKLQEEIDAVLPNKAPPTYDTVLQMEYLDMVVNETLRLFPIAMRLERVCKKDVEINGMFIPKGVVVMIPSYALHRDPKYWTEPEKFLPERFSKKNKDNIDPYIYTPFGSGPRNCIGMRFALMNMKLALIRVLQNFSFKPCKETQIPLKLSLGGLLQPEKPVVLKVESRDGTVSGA

Cytochrome P450 3A4 [11] = target: T1, Cytochrome P450 3A4; test: Inhibition of CYP3A4 in human liver microsomes using testosterone as substrate; assay type: ADME, Microsome
CYP1A2 = CYP1A2 (Homo sapiens, UniProt P05177); test: Induction of CYP1A2 (unknown origin); assay type: ADME
CYP2B6 = CYP2B6 (Homo sapiens, UniProt P20813); test: Induction of CYP2B6 (unknown origin); assay type: ADME
CYP3A4 = CYP3A4 (Homo sapiens, UniProt P08684); test: Induction of CYP3A4 (unknown origin); assay type: ADME
Sequence of CYP3A4 (P08684 whole entry): as above

[12] = Protein binding in human plasma assessed as unbound fraction; assay type: ADME, cell-free
[13] = Protein binding in rat plasma assessed as unbound fraction; assay type: ADME, cell-free
[14] = Protein binding in mouse plasma assessed as unbound fraction; assay type: ADME, cell-free
[15] = Protein binding in dog plasma assessed as unbound fraction; assay type: ADME, cell-free, Canis lupus familiaris
[16] = Protein binding in Cynomolgus monkey plasma assessed as unbound fraction; assay type: ADME, cell-free, Macaca fascicularis
[17] = target: Nuclear receptor subfamily 1 group I member 2 (Homo sapiens, UniProt O75469); test: Activation of PXR (unknown origin)
[18] = Cytotoxicity against human HepG2 cells; assay type: toxicity, cell-based
[19] = target: Multidrug and toxin extrusion protein 1 (Homo sapiens, UniProt Q96FL8); test: Inhibition of MATE1 (unknown origin)
Bile salt export pump = Bile salt export pump (Homo sapiens, UniProt O95342); test: Inhibition of BSEP (unknown origin)
Sequence of Bile salt export pump (O95342 whole entry): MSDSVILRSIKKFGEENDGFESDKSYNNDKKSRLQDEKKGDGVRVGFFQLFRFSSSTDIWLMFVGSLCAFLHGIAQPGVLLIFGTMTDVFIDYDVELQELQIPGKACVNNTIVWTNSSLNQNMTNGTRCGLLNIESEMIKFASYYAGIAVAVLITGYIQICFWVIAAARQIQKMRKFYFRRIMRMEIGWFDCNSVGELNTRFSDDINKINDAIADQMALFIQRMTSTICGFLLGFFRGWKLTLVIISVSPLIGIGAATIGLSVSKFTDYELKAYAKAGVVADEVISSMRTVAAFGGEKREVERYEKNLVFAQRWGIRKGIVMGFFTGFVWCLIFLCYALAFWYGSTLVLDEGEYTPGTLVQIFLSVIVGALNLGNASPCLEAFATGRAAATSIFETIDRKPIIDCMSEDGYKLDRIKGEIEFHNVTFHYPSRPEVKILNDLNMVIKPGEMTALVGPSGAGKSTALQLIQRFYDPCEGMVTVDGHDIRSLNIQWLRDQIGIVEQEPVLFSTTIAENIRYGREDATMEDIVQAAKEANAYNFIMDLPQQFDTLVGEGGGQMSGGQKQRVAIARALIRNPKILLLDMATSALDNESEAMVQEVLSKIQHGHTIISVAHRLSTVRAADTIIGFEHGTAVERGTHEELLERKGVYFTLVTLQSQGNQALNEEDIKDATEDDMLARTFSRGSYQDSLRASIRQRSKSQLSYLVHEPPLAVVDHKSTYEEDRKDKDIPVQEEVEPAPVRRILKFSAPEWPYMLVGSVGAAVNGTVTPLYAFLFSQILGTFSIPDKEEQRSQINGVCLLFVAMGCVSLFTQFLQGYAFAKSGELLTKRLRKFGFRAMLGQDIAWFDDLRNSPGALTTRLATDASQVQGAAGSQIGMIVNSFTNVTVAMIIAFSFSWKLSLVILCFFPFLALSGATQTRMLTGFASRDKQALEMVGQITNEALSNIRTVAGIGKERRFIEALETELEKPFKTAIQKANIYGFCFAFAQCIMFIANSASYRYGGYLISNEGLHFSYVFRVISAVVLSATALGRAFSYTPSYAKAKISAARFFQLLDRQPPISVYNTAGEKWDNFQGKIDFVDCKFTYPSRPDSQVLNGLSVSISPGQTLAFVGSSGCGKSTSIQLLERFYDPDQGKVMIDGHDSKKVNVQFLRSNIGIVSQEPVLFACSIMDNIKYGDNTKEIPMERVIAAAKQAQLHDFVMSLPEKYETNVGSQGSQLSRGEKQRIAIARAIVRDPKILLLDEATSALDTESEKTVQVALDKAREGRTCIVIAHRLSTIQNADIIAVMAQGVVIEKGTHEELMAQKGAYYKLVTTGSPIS

[20] = target: Solute carrier organic anion transporter family member 1B1 (Homo sapiens, UniProt Q9Y6L6); test: Inhibition of OATP1B1 (unknown origin)
Sequence of Solute carrier organic anion transporter family member 1B1 (Q9Y6L6 whole entry): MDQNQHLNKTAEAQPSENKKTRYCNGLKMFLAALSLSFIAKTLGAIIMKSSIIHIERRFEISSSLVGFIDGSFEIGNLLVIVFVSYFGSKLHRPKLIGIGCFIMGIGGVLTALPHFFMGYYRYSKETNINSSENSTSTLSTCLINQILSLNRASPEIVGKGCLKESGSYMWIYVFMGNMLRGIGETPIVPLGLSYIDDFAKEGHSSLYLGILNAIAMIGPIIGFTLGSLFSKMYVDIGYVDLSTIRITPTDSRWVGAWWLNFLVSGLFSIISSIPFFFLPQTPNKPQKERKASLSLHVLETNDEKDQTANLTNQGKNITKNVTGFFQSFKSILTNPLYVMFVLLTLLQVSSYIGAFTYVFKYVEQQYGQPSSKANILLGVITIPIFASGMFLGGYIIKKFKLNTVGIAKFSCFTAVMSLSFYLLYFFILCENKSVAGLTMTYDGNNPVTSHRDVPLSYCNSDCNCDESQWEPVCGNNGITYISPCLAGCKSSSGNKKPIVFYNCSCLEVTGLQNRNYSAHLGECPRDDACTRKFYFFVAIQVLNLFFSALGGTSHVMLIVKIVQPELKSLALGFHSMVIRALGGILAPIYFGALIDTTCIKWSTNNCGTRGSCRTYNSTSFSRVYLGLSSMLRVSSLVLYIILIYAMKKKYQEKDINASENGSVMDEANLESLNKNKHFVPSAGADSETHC

[21] = target: Solute carrier organic anion transporter family member 1B3 (Homo sapiens, UniProt Q9NPD5); test: Inhibition of OATP1B3 (unknown origin)
[22] = target: Hepatic sodium/bile acid cotransporter (Homo sapiens, UniProt Q14973); test: Inhibition of NTCP (unknown origin)
[23] = target: ATP-binding cassette sub-family C member 2 (Homo sapiens, UniProt Q92887); test: Inhibition of MRP2 (unknown origin)
[24] = target: Solute carrier family 22 member 6 (Homo sapiens, UniProt Q4U2R8); test: Inhibition of OAT1 (unknown origin)
[25] = target: Organic anion transporter 3 (Homo sapiens, UniProt Q8TCC7); test: Inhibition of OAT3 (unknown origin)
Sequence of Organic anion transporter 3 (Q8TCC7 whole entry): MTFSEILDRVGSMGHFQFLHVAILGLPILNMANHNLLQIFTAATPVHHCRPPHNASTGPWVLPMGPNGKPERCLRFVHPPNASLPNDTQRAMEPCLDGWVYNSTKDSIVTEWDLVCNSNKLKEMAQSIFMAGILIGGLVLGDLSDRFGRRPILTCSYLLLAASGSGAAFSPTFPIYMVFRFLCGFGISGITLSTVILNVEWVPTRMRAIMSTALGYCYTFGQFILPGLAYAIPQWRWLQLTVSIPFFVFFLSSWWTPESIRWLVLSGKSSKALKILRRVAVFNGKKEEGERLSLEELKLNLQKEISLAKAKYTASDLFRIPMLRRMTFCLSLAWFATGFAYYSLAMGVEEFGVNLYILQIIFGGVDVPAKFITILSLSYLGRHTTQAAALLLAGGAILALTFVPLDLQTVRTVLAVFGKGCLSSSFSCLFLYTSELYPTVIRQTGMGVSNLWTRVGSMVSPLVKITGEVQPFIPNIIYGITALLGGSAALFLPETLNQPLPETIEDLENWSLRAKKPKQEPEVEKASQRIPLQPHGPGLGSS

[26] = target: Broad substrate specificity ATP-binding cassette transporter ABCG2 (Homo sapiens, UniProt Q9UNQ0); test: Inhibition of BCRP (unknown origin)
[27] = Solubility of compound at pH 1.1; assay type: physicochemical; conditions: buffer
[28] = Solubility of compound at pH 7.4; assay type: physicochemical; conditions: buffer
[29] = Volume of distribution at steady state in mouse at 2 mg/kg, iv; assay type: ADME, organism-based; conditions: in vivo, read-out: Vdss
[30] = Half-life in mouse at 2 mg/kg, iv; assay type: ADME, organism-based; conditions: in vivo
[31] = MRT in mouse at 2 mg/kg, iv; assay type: ADME, organism-based; conditions: in vivo
[32] = Cmax in mouse at 2 mg/kg, po; assay type: ADME, organism-based; conditions: in vivo
[33] = Tmax in mouse at 2 mg/kg, po; assay type: ADME, organism-based; conditions: in vivo
[34] = AUC (0 to t) in mouse at 2 mg/kg, po; assay type: ADME, organism-based; conditions: in vivo
[35] = Oral bioavailability in mouse at 5 mg/kg; assay type: ADME, organism-based; conditions: in vivo
[36] = Volume of distribution at steady state in male Sprague-Dawley rat at 2 mg/kg, iv measured after 24 hrs by LC-MS/MS analysis; assay type: ADME, organism-based; conditions: in vivo, read-out: Vdss
[37] = Half-life in male Sprague-Dawley rat at 2 mg/kg, iv measured after 24 hrs by LC-MS/MS analysis; assay type: ADME, organism-based; conditions: in vivo
[38] = MRT in male Sprague-Dawley rat at 2 mg/kg, iv measured after 24 hrs by LC-MS/MS analysis; assay type: ADME, organism-based; conditions: in vivo
[39] = Cmax in male Sprague-Dawley rat at 5 mg/kg, po measured after 24 hrs by LC-MS/MS analysis; assay type: ADME, organism-based; conditions: in vivo
[40] = Tmax in male Sprague-Dawley rat at 5 mg/kg, po measured after 24 hrs by LC-MS/MS analysis; assay type: ADME, organism-based; conditions: in vivo
[41] = AUC (0 to t) in male Sprague-Dawley rat at 5 mg/kg, po measured after 24 hrs by LC-MS/MS analysis; assay type: ADME, organism-based; conditions: in vivo
[42] = Oral bioavailability in male Sprague-Dawley rat at 5 mg/kg measured after 24 hrs by LC-MS/MS analysis; assay type: ADME, organism-based; conditions: in vivo
[43] = Volume of distribution at steady state in dog at 2 mg/kg, iv; assay type: ADME, organism-based, Canis lupus familiaris; conditions: in vivo, read-out: Vdss
[44] = Half-life in dog at 2 mg/kg, iv; assay type: ADME, organism-based, Canis lupus familiaris; conditions: in vivo
[45] = MRT in dog at 2 mg/kg, iv; assay type: ADME, organism-based, Canis lupus familiaris; conditions: in vivo
[46] = Cmax in dog at 5 mg/kg, po; assay type: ADME, organism-based, Canis lupus familiaris; conditions: in vivo
[47] = Tmax in dog at 5 mg/kg, po; assay type: ADME, organism-based, Canis lupus familiaris; conditions: in vivo
[48] = AUC (0 to t) in dog at 5 mg/kg, po; assay type: ADME, organism-based, Canis lupus familiaris; conditions: in vivo
[49] = Oral bioavailability in dog at 5 mg/kg; assay type: ADME, organism-based, Canis lupus familiaris; conditions: in vivo
[50] = Volume of distribution at steady state in Cynomolgus monkey at 2 mg/kg, iv; assay type: ADME, organism-based, Macaca fascicularis; conditions: in vivo, read-out: Vdss
[51] = Half-life in Cynomolgus monkey at 2 mg/kg, iv; assay type: ADME, organism-based, Macaca fascicularis; conditions: in vivo
[52] = MRT in Cynomolgus monkey at 2 mg/kg, iv; assay type: ADME, organism-based, Macaca fascicularis; conditions: in vivo
[53] = Cmax in Cynomolgus monkey at 5 mg/kg, po; assay type: ADME, organism-based, Macaca fascicularis; conditions: in vivo
[54] = Tmax in Cynomolgus monkey at 5 mg/kg, po; assay type: ADME, organism-based, Macaca fascicularis; conditions: in vivo
[55] = AUC (0 to t) in Cynomolgus monkey at 5 mg/kg, po; assay type: ADME, organism-based, Macaca fascicularis; conditions: in vivo
[56] = Oral bioavailability in Cynomolgus monkey at 5 mg/kg; assay type: ADME, organism-based, Macaca fascicularis; conditions: in vivo

With `Cc1cc(-n2ncc(CN3C[C@@H](c4ccc5c(c4C)COC5=O)N[C@@H](C)C3)n2)ncc1C#N` the remaining at 10 min, 10 µM [1] was 90%, the remaining at 10 min, 10 µM [2] was 92% and the Activity [3] was “Not Active”. For the same compound, the IC50 [4] was greater than 10 µM, the IC50 [5] was greater than 10 µM and the IC50 [6] was greater than 10 µM. For the same compound, the IC50 [7] was greater than 10 µM, the Papp A→B [8] was 110 ×10⁻⁶ cm/s and the permeability [9] was 570 10^-6 cm/s. It also gave an IC50 (Cytochrome P450 1A2) greater than 40 µM, an IC50 (Cytochrome P450 2B6) greater than 40 µM and an IC50 (Cytochrome P450 2C8) greater than 40 µM. The IC50 (Cytochrome P450 2C9) was greater than 40 µM, the IC50 (Cytochrome P450 2C19) was greater than 40 µM and the IC50 (Cytochrome P450 2D6) was greater than 40 µM. It also gave an IC50 (Cytochrome P450 3A4 [10]) greater than 40 µM, an IC50 (Cytochrome P450 3A4 [11]) greater than 40 µM and an IC50 (CYP1A2) greater than 40 µM. For the same compound, the IC50 (CYP2B6) was greater than 40 µM, the IC50 (CYP3A4) was greater than 40 µM and the PPB [12] was 52%. The PPB [13] was 68%, the PPB [14] was 83% and the PPB [15] was 76%. It also gave a PPB [16] of 74%, an EC50 [17] greater than 50 µM and an IC50 [18] greater than 100 µM. For the same compound, the IC50 [19] was 2700 nM, the IC50 (Bile salt export pump) was 7 µM and the IC50 [20] was greater than 18 µM. The IC50 [21] was greater than 18 µM, the IC50 [22] was greater than 18 µM and the IC50 [23] was greater than 18 µM. For the same compound, the IC50 [24] was greater than 18 µM, the IC50 [25] was greater than 18 µM and the IC50 [26] was greater than 18 µM. For the same compound, the solubility [27] was 14 mg/mL (≈ 31.6 mM), the solubility [28] was 30 µg/mL (≈ 0.0676 mM) and the Vd [29] was 2.6 L/kg. For the same compound, the half-life [30] was 168 min, the MRT [31] was 4 h and the Cmax [32] was 2800 nM. The Tmax [33] was 15 min, the AUC(0-t) [34] was 14 µM·h and the bioavailability [35] was 83%. For the same compound, the Vd [36] was 2.8 L/kg, the half-life [37] was 288 min and the MRT [38] was 5.8 h. For the same compound, the Cmax [39] was 3.8 µM, the Tmax [40] was 48 min and the AUC(0-t) at 24 h [41] was 18 µM·h. It also gave a bioavailability [42] of 76%, a Vd [43] of 1.7 L/kg and a half-life [44] of 198 min. The MRT [45] was 1.7 h, the Cmax [46] was 1900 nM and the Tmax [47] was 48 min. For the same compound, the AUC(0-t) [48] was 5.7 µM·h, the bioavailability [49] was 48% and the Vd [50] was 5.1 L/kg. The half-life [51] was 252 min, the MRT [52] was 3.6 h and the Cmax [53] was 1000 nM. It also gave a Tmax [54] of 2 h, an AUC(0-t) [55] of 5.5 µM·h and a bioavailability [56] of 69%.
